54 compounds from patent US12643905B2, “Spiropyrrolidine derived antiviral agents” (priority 2021, dated 2026) can be followed below.

The target of the test is SARS-CoV-2 3CL-protease (Severe acute respiratory syndrome coronavirus 2, UniProt P0DTD1). In words: SARS-CoV-2 3C-like (3CL) protease fluorescence assay (FRET). Particulars: recombinant SARS-CoV-2 3CL-protease 10 nM, 30 min preincubation, run in duplicate; read-out: FRET IC50. The format is biochemical.

Consider `[2H]C([2H])([2H])N(C(=O)C(=O)Nc1ccc(C(F)(F)F)cc1)[C@@H](CC1CC1)C(=O)N1C[C@]2(C[C@H]1C#N)C(=O)Nc1ccccc12` [Example 54], for which the IC50 was less than 100 nM.

`[2H]C([2H])([2H])N(C(=O)C(=O)Nc1ccc(F)cc1C(F)(F)F)[C@@H](CC1CC1)C(=O)N1C[C@]2(C[C@H]1C#N)C(=O)Nc1ccccc12` [Example 55]: the IC50 was less than 100 nM.

As for `[2H]C([2H])([2H])N(C(=O)C(=O)NCC(C)C)[C@@H](CCCC)C(=O)N1C[C@]2(C[C@H]1C#N)C(=O)Nc1ccccc12` [Example 56], the IC50 was less than 100 nM.

Take `[2H]C([2H])([2H])N(C(=O)C(=O)c1ccc(F)cc1)[C@@H](CCCC)C(=O)N1C[C@]2(C[C@H]1C#N)C(=O)Nc1ccccc12` [Example 57]: the concentration for half-maximal inhibition (IC50) is less than 100 nM.

Take `CC(C)(C)C[C@@H](C(=O)N1C[C@]2(C[C@H]1C#N)C(=O)Nc1ccccc12)N(CC(F)F)C(=O)C(=O)Nc1ccccc1` [Example 60]: the IC50 was 100 to 1000 nM.

Turning to `CC(C)(C)C[C@@H](C(=O)N1C[C@]2(C[C@H]1C#N)C(=O)Nc1ccccc12)N(CC(F)F)C(=O)C(=O)Nc1ccccn1` [Example 61], the IC50 is greater than 1000 nM.

With `CC(C)(C)C[C@@H](C(=O)N1C[C@]2(C[C@H]1C#N)C(=O)Nc1ccccc12)N(CC(F)F)C(=O)C(=O)Nc1ccc(F)cc1` [Example 62], the IC50 was in the range of 100 to 1000 nM.

On to `CC(C)(C)C[C@@H](C(=O)N1C[C@]2(C[C@H]1C#N)C(=O)Nc1ccccc12)N(CC(F)F)C(=O)C(=O)NC1CC1` [Example 63], for which the IC50 was in the range of 100 to 1000 nM.

In the case of `CC(C)(C)C[C@@H](C(=O)N1C[C@]2(C[C@H]1C#N)C(=O)Nc1ccccc12)N(CC(F)(F)F)C(=O)C(=O)Nc1ccc(F)cc1` [Example 64], the half-maximal inhibitory concentration (IC50) was 100 to 1000 nM.

For the compound `CC(C)(C)C[C@@H](C(=O)N1C[C@]2(C[C@H]1C#N)C(=O)Nc1ccccc12)N(CC(F)(F)F)C(=O)C(=O)Nc1ccccc1` [Example 65], the IC50 was in the range of 100 to 1000 nM.

Turning to `CC(C)(C)C[C@@H](C(=O)N1C[C@]2(C[C@H]1C#N)C(=O)Nc1ccccc12)N(CC(F)(F)F)C(=O)C(=O)Nc1ccccn1` [Example 66], the IC50 is greater than 1000 nM.

`CC(C)(C)C[C@@H](C(=O)N1C[C@]2(C[C@H]1C#N)C(=O)Nc1ccccc12)N(CC(F)(F)F)C(=O)C(=O)NC1CC1` [Example 67]: the IC50 fell in the range of 100 to 1000 nM.

With `Cc1cccc(C)c1NC(=O)C(=O)N[C@@H](Cc1ccc(F)cc1)C(=O)N1C[C@]2(C[C@H]1C#N)C(=O)Nc1ccccc12` [Example 73], the concentration for half-maximal inhibition (IC50) was less than 100 nM.

Turning to `Cc1cccc(C)c1NC(=O)C(=O)N[C@@H](CC1CC1)C(=O)N1C[C@]2(C[C@H]1C#N)C(=O)Nc1ccccc12` [Example 78], the IC50 is less than 100 nM.

As for `CCCC[C@H](NC(=O)C(=O)Nc1c(F)cccc1C(F)(F)F)C(=O)N1C[C@]2(C[C@H]1C#N)C(=O)Nc1ccccc12` [Example 79], the IC50 was less than 100 nM.

Turning to `CC(C)(C)C[C@H](NC(=O)C(=O)Nc1cc(F)cc(F)c1)C(=O)N1C[C@]2(C[C@H]1C#N)C(=O)Nc1ccccc12` [Example 86], the IC50 is less than 100 nM.

For the compound `CC(C)(C)C[C@H](NC(=O)C(=O)NC(C)(C)c1ccccn1)C(=O)N1C[C@]2(C[C@H]1C#N)C(=O)Nc1ccccc12` [Example 106], the concentration for half-maximal inhibition (IC50) was less than 100 nM.

Consider `CC(C)(C)C[C@H](NC(=O)C(=O)NC1(c2ccccc2C(F)(F)F)CC1)C(=O)N1C[C@]2(C[C@H]1C#N)C(=O)Nc1ccccc12` [Example 107], for which the IC50 was less than 100 nM.

As for `CC(C)(C)C[C@H](NC(=O)C(=O)NC1(c2ccc(C(F)(F)F)cc2)CC1)C(=O)N1C[C@]2(C[C@H]1C#N)C(=O)Nc1ccccc12` [Example 108], the IC50 was less than 100 nM.

In the case of `CN(C(=O)C(=O)N[C@@H](CC(C)(C)C)C(=O)N1C[C@]2(C[C@H]1C#N)C(=O)Nc1ccccc12)C1CC1` [Example 109], the IC50 is greater than 1000 nM.

For the compound `CC(C)(C)C[C@H](NC(=O)C(=O)N1CCCCC1)C(=O)N1C[C@]2(C[C@H]1C#N)C(=O)Nc1ccccc12` [Example 110], the IC50 is greater than 1000 nM.

In the case of `CC(C)(C)C[C@H](NC(=O)C(=O)N1CCC(F)(F)CC1)C(=O)N1C[C@]2(C[C@H]1C#N)C(=O)Nc1ccccc12` [Example 111], the IC50 is greater than 1000 nM.

Take `CC(C)(C)C[C@H](NC(=O)C(=O)N1CCC(C(F)(F)F)CC1)C(=O)N1C[C@]2(C[C@H]1C#N)C(=O)Nc1ccccc12` [Example 112]: the IC50 is 100 to 1000 nM.

As for `CC(C)(C)C[C@H](NC(=O)C(=O)Nc1ccc2cccnc2c1)C(=O)N1C[C@]2(C[C@H]1C#N)C(=O)Nc1ccccc12` [Example 113], the IC50 is less than 100 nM.

In the case of `CC(C)(C)C[C@H](NC(=O)C(=O)Nc1ccc2ncccc2c1)C(=O)N1C[C@]2(C[C@H]1C#N)C(=O)Nc1ccccc12` [Example 114], the IC50 is less than 100 nM.

Consider `CC(C)(C)C[C@H](NC(=O)C(=O)Nc1ncccc1F)C(=O)N1C[C@]2(C[C@H]1C#N)C(=O)Nc1ccccc12` [Example 121], for which the IC50 was less than 100 nM.

In the case of `CC(C)(C)C[C@H](NC(=O)C(=O)Nc1c(F)cncc1F)C(=O)N1C[C@]2(C[C@H]1C#N)C(=O)Nc1ccccc12` [Example 122], the IC50 is less than 100 nM.

On to `CC(C)(C)C[C@H](NC(=O)C(=O)Nc1ccc2[nH]ccc2c1)C(=O)N1C[C@]2(C[C@H]1C#N)C(=O)Nc1ccccc12` [Example 123], for which the IC50 was less than 100 nM.

With `CC(C)(C)C[C@H](NC(=O)C(=O)Nc1ccc2cc[nH]c2c1)C(=O)N1C[C@]2(C[C@H]1C#N)C(=O)Nc1ccccc12` [Example 124], the IC50 is less than 100 nM.

Take `CC(C)(C)C[C@H](NC(=O)C(=O)Nc1ncccc1C(F)(F)F)C(=O)N1C[C@]2(C[C@H]1C#N)C(=O)Nc1ccccc12` [Example 125]: the IC50 is less than 100 nM.

In the case of `Cc1cccnc1NC(=O)C(=O)N[C@@H](CC(C)(C)C)C(=O)N1C[C@]2(C[C@H]1C#N)C(=O)Nc1ccccc12` [Example 126], the half-maximal inhibitory concentration (IC50) was less than 100 nM.

Consider `Cc1ccc(NC(=O)C(=O)N[C@@H](CC(C)(C)C)C(=O)N2C[C@]3(C[C@H]2C#N)C(=O)Nc2ccccc23)nc1` [Example 127], for which the IC50 is less than 100 nM.

Take `CC(C)(C)C[C@H](NC(=O)C(=O)Nc1ccnc(C(F)(F)F)c1)C(=O)N1C[C@]2(C[C@H]1C#N)C(=O)Nc1ccccc12` [Example 128]: the IC50 is less than 100 nM.

In the case of `CC(C)(C)C[C@H](NC(=O)C(=O)N[C@]12C[C@](C(F)(F)F)(C1)C2)C(=O)N1C[C@]2(C[C@H]1C#N)C(=O)Nc1ccccc12` [Example 129], the IC50 is less than 100 nM.

As for `CC(C)(C)C[C@H](NC(=O)C(=O)NC12CCC(CC1)CC2)C(=O)N1C[C@]2(C[C@H]1C#N)C(=O)Nc1ccccc12` [Example 130], the IC50 is less than 100 nM.

On to `CC(C)(C)C[C@H](NC(=O)C(=O)NC1CCC(F)(F)CC1)C(=O)N1C[C@]2(C[C@H]1C#N)C(=O)Nc1ccccc12` [Example 131], for which the IC50 is less than 100 nM.

`Cc1cccc(C(F)(F)F)c1NC(=O)C(=O)N[C@@H](CC(C)(C)C)C(=O)N1C[C@]2(C[C@H]1C#N)C(=O)Nc1ccccc12` [Example 132]: the IC50 is less than 100 nM.

For the compound `CC(C)(C)C[C@H](NC(=O)C(=O)NC1(C(F)(F)F)CC1)C(=O)N1C[C@]2(C[C@H]1C#N)C(=O)Nc1ccccc12` [Example 134], the IC50 is less than 100 nM.

As to `CC(C)(C)C[C@H](NC(=O)C(=O)NC(C)(C)C(F)(F)F)C(=O)N1C[C@]2(C[C@H]1C#N)C(=O)Nc1ccccc12` [Example 135], the half-maximal inhibitory concentration (IC50) was less than 100 nM.

As to `CC(C)(C)C[C@H](NC(=O)C(=O)N[C@]12CC[C@H](C1)C2)C(=O)N1C[C@]2(C[C@H]1C#N)C(=O)Nc1ccccc12` [Example 136], the IC50 is less than 100 nM.

As for `CC(C)(C)C[C@H](NC(=O)C(=O)Nc1ccc(C(F)(F)F)cc1C(F)(F)F)C(=O)N1C[C@]2(C[C@H]1C#N)C(=O)Nc1ccccc12` [Example 137], the IC50 was 100 to 1000 nM.

As to `CC(C)(C)C[C@H](NC(=O)C(=O)NC1(c2ccccc2F)CC1)C(=O)N1C[C@]2(C[C@H]1C#N)C(=O)Nc1ccccc12` [Example 139], the IC50 is less than 100 nM.

`CC(C)(C)C[C@H](NC(=O)C(=O)NC1(C)CC1)C(=O)N1C[C@]2(C[C@H]1C#N)C(=O)Nc1ccccc12` [Example 140]: the IC50 was less than 100 nM.

Turning to `CC(C)(C)C[C@H](NC(=O)C(=O)N[C@]12C[C@](C)(C1)C2)C(=O)N1C[C@]2(C[C@H]1C#N)C(=O)Nc1ccccc12` [Example 141], the IC50 is less than 100 nM.

In the case of `CC(C)(C)C[C@H](NC(=O)C(=O)N[C@]12C[C@](F)(C1)C2)C(=O)N1C[C@]2(C[C@H]1C#N)C(=O)Nc1ccccc12` [Example 142], the IC50 is less than 100 nM.

Take `Cc1cc(F)cc(C)c1NC(=O)C(=O)N[C@@H](CC(C)(C)C)C(=O)N1C[C@]2(C[C@H]1C#N)C(=O)Nc1ccccc12` [Example 143]: the IC50 was less than 100 nM.

On to `COc1cccc(C)c1NC(=O)C(=O)N[C@@H](CC(C)(C)C)C(=O)N1C[C@]2(C[C@H]1C#N)C(=O)Nc1ccccc12` [Example 144], for which the IC50 is less than 100 nM.

As to `CC(C)(C)C[C@H](NC(=O)C(=O)Nc1c(C#N)cccc1C(F)(F)F)C(=O)N1C[C@]2(C[C@H]1C#N)C(=O)Nc1ccccc12` [Example 145], the IC50 lay in the range of 100 to 1000 nM.

In the case of `CC(C)(C)C[C@H](NC(=O)C(=O)Nc1c(F)cccc1Cl)C(=O)N1C[C@]2(C[C@H]1C#N)C(=O)Nc1ccccc12` [Example 146], the IC50 was less than 100 nM.

For `Cc1cccc(Cl)c1NC(=O)C(=O)N[C@@H](CC(C)(C)C)C(=O)N1C[C@]2(C[C@H]1C#N)C(=O)Nc1ccccc12` [Example 147], the IC50 is less than 100 nM.

As to `CC(C)(C)C[C@H](NC(=O)C(=O)Nc1c(Cl)cccc1C#N)C(=O)N1C[C@]2(C[C@H]1C#N)C(=O)Nc1ccccc12` [Example 148], the concentration for half-maximal inhibition (IC50) is less than 100 nM.

In the case of `CC(C)(C)C[C@H](NC(=O)C(=O)Nc1ccc(Cl)cc1C(F)(F)F)C(=O)N1C[C@]2(C[C@H]1C#N)C(=O)Nc1ccccc12` [Example 149], the IC50 was less than 100 nM.

As for `CC(C)(C)C[C@H](NC(=O)C(=O)Nc1c(F)ccc(F)c1F)C(=O)N1C[C@]2(C[C@H]1C#N)C(=O)Nc1ccccc12` [Example 150], the IC50 was less than 100 nM.

For `CN(C(=O)C(=O)Nc1c(Cl)cccc1Cl)[C@@H](CC(C)(C)C)C(=O)N1C[C@]2(C[C@H]1C#N)C(=O)Nc1ccccc12` [Example 151], the IC50 was less than 100 nM.
